Measured values taken from patent US7572794B2, “Anthranilamide pyridinureas as vascular endothelial growth factor (VEGF) receptor kinase inhibitors” (Bayer Schering Pharma AG, priority 2004, dated 2009).
pIC50: −log10 of the molar value.

What was measured:
KDR-Kinase (VEGFR-2) = target: T1, KDR-Kinase (VEGFR-2) (Homo sapiens, UniProt P35968); assay: KDR Kinase Inhibition; type: biochemical; details: GST-kinase domain fusion construct of KDR; poly(Glu4Tyr) substrate, 32P-ATP, 10 min
T1 construct: GST-kinase domain fusion construct of the KDR kinase; GST
Description: Kinase activity was measured with a GST-kinase domain fusion construct of the KDR kinase according to the following protocol to obtain concentration response curves. Components were added into a microtiterplate in the following sequence: 10 μl of inhibitor in threefold final concentration [3% DMSO in buffer (40 mM TrisCl pH 7.5; 1 mM DTT, 1 mM MnCl2, 10 mM MgCl2, 2.5 Promille Polyethyleneglycol 20000)]and 10 μl of substrate mixture [24 μM ATP, 24 μg/ml poly(Glu4Tyr) in buffer, specific activity approx. 500 cpm/pmol ^32P-[…]ATP]. Reaction was started by adding 10 μl of enzyme preparation diluted appropriately in buffer that contains 10 μM vanadate. After incubation for exactly 10 min the reaction was stopped by adding of 10 μl stop solution (250 mM EDTA). 10 μl of the reaction mixture were transferred to phosphocellulose filters. The filters were washed in 0.1% phosphoric acid, dried before meltilex scintillator was applied (Waltac, Perkin-Elmer) and the radioactivity was counted.

[1] = target: T2, Cytochrome P450 isoenzyme 2C9 (Homo sapiens, UniProt P11712); assay: Cytochrome P450 Inhibition (2C9); type: in vitro ADME; details: baculovirus/insect cell-expressed human isoenzyme, method of Crespi et al.; read-out: IC50 CYP 2C9
T2 construct: host or cells: baculovirus/insect cells
Description: (§1) Cytochrome P450 Inhibition
(§2) The Cytochrome P450 isoenzyme inhibition was performed according to the publication of Crespi et al. (Anal. Biochem., 1997, 248, 188-190) with use of the baculovirus/insect cell-expressed, human Cytochrome P 450 isoenzymes (2C9 and 2C19).

[2] = target: T3, Cytochrome P450 isoenzyme 2C19 (Homo sapiens, UniProt P33261); assay: Cytochrome P450 Inhibition (2C19); type: in vitro ADME; details: baculovirus/insect cell-expressed human isoenzyme, method of Crespi et al.; read-out: IC50 CYP 2C19
T3 construct: host or cells: baculovirus/insect cells
Description: as §1, §2

T1 sequence (P35968 834-1162 limits assumed, species assumed): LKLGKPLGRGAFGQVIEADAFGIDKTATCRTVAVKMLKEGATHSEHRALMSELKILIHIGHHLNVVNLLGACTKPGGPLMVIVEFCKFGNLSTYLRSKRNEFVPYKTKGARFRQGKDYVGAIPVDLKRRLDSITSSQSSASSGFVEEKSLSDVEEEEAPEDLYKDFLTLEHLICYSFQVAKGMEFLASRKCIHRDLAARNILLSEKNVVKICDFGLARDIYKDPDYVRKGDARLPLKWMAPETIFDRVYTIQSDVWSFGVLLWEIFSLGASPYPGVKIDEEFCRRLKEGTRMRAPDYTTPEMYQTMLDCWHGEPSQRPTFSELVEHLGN
T3 sequence (P33261 whole entry): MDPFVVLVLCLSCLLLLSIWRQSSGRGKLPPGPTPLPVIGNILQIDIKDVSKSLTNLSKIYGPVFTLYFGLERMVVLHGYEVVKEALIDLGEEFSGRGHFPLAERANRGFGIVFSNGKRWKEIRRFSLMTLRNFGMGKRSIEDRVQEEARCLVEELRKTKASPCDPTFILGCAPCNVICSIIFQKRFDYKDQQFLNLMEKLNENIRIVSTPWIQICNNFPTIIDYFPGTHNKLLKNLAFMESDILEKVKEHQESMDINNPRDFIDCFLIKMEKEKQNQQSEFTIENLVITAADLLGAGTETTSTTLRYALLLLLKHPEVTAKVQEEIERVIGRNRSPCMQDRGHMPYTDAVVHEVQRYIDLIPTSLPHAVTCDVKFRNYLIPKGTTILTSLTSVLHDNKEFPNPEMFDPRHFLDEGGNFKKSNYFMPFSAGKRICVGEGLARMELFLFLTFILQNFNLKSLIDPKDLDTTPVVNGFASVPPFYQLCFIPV
T2 sequence (P11712 whole entry): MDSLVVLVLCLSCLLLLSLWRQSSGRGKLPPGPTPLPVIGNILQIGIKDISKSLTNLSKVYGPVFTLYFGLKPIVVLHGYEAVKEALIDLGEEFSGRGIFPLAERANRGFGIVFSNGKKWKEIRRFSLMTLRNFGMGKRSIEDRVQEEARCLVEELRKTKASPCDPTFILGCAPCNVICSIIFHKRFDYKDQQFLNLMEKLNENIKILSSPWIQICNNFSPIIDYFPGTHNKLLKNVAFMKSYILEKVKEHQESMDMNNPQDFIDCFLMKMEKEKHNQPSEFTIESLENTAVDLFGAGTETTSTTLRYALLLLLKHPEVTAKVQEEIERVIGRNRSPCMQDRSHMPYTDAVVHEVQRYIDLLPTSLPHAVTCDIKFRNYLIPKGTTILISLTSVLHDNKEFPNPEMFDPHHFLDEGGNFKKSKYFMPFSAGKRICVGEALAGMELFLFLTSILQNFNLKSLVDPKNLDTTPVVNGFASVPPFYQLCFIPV

pIC50 (KDR-Kinase (VEGFR-2)) | pIC50 [1] | pIC50 [2] | SMILES
7.70 | 4.80 | 4.57 | Cn1cc2ccc(NC(=O)c3ccccc3NCc3ccnc(NC(=O)N4CCC(O)CC4)c3)cc2n1 [Example 1.1, 4-hydroxy-piperidine-1-carboxylic acid (4-{[2-(2-methyl-2H-indazol-6-ylcarbamoyl)-phenylamino]-methyl}-pyridin-2-yl)-amide]
7.77 | 4.72 | 4.92 | Cn1cc2ccc(NC(=O)c3ccccc3NCc3ccnc(NC(=O)N4CCC(O)(C(F)(F)F)CC4)c3)cc2n1 [Example 1.2, 4-hydroxy-4-trifluoromethyl-piperidine-1-carboxylic acid (4-{[2-(2-methyl-2H-indazol-6-ylcarbamoyl)-phenylamino]-methyl}-pyridin-2-yl)-amide]
7.54 | 5.36 | 5.05 | CN1CCN(C(=O)Nc2cc(CNc3ccccc3C(=O)Nc3ccc4cn(C)nc4c3)ccn2)CC1 [Example 3.0, 4-methyl-piperazine-1-carboxylic acid (4-{[2-(2-methyl-2H-indazol-6-ylcarbamoyl)-phenylamino]-methyl}-pyridin-2-yl)-amide]
7.54 | 4.89 | 5.05 | Cn1cc2ccc(NC(=O)c3ccccc3NCc3ccnc(NC(=O)N4CCOCC4)c3)cc2n1 [Example 3.6, morpholine-4-carboxylic acid (4-{[2-(2-methyl-2H-indazol-6-ylcarbamoyl)-phenylamino]-methyl}-pyridin-2-yl)-amide]
